Drawing on patent publication US12583861B2, “Derivatives of imidazo[4,5-d]pyridazine, their preparation and their therapeutic application” (SANOFI, priority 2021, dated 2026), this text covers EC50 for ten compounds.

What all share (format): cell-based
For assay [1], the target named is T1, human TLR8 (Homo sapiens, UniProt Q9NR97).
T1 construct: host or cells: HEK293 (HEK-Blue hTLR8)
T1 sequence (Q9NR97 27-1041): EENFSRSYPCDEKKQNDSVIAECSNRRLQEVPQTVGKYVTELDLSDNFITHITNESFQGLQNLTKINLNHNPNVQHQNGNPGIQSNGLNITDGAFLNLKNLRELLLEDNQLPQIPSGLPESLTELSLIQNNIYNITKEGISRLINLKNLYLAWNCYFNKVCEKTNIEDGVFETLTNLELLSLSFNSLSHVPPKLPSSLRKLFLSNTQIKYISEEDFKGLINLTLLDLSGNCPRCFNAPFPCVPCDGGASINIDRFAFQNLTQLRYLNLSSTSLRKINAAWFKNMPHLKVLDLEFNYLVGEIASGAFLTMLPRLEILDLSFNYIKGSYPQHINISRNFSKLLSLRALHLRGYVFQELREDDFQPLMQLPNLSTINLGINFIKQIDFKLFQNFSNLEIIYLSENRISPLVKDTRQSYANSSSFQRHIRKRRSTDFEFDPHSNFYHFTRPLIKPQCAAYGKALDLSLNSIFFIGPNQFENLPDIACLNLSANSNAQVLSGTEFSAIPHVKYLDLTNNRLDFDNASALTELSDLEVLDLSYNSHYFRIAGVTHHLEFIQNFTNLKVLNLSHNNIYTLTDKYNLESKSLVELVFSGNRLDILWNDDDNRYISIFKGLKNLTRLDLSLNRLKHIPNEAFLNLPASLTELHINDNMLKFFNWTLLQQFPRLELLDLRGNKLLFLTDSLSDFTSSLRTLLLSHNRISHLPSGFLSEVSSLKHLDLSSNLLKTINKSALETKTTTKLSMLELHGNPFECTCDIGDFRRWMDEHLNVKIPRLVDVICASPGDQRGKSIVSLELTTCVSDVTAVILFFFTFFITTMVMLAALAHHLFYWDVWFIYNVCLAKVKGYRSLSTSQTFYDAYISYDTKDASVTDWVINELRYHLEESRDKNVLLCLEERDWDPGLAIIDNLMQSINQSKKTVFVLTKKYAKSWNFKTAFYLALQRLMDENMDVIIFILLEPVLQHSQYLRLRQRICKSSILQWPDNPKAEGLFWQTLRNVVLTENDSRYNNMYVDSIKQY
The assay can be described thus: HEK-Blue hTLR8 reporter cell assay (SEAP, NF-kB/AP-1) for stimulation of human TLR8. The settings on record: HEK-Blue hTLR8 cells, 24 h incubation, SEAP readout; read-out: TLR8_EC50. An outline of the steps:
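Stimulation is quantified as secreted alkaline phosphatase in supernatant using QUANTI-Blue™ substrate. Reporter HEK293 line co-transfected with hTLR8 and SEAP under an IFN-β minimal promoter with five NF-κB/AP-1 sites; 3.10E4 cells/well, 18 to 24 h pre-culture at 37° C. before compounds.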

The test system of assay [2] is IFN-α2a. Briefly: IFN-α2a cytokine activation in human PBMC (MSD assay). The settings on record: Homo sapiens, PBMC, 24 h. As to the method: (§1) The other below tests involving measuring the in vitro activity of some compounds of the disclosure on cytokines IFN-α2a, IL-6, IL29 and TNF-α were carried out using human PBMC (PBMCs).
(§2) The activity described below, with respect to TLR7, TLR8, IFN-α2a, IL-6, IL29 and TNF-α, is given by the half maximal effective concentration (EC50), which corresponds to the concentration required to obtain a 50% of the activation. The lower the EC50, the less the concentration of the compound is required to produce 50% of maximum activation and the higher the potency.
(§3) In Vitro Assay to Determine IFN-α2a, IL-6, IL29 and TNF-α Cytokine Activation:
(§4) Peripheral blood mononuclear cells were isolated by Ficoll density gradient centrifugation from peripheral blood samples obtained from healthy donors (EFS). Isolated PBMCs are washed twice with PBS and resuspended in RPMI-1640 medium supplement with 10% fetal bovine serum (FBS) at 5.10^5 cells/well in a 96-well plate. The cells were then incubated with the compounds to test at various doses (20 μM to 4.8.10-6 μM final) for 24 h at 37° C., 5% CO2. After 24 h treatment, the plates are centrifuged and the supernatant were collected and assayed for cytokines IFN-α2a, IL-6, IL29 and TNF-α using the Meso Scale Discovery (MSD) assay platform according to the manufacturer's instructions. Briefly, 25 μL of cell culture supernatants were incubated for 1 h at Room Temperature (RT) in custom Multi-Spot 96-well plates prior coated with capture antibodies. After washing, SULFO-TAG® labeled detection antibodies were added to each of the wells and incubated for 1 h RT before adding a read buffer.

For assay [3], the system named is IL-6. Briefly: IL-6 cytokine activation in human PBMC (MSD assay). The settings on record: Homo sapiens, PBMC, 24 h, read-out: IL6 EC50. How it is done: as §1, §2, §3, §4
For assay [4], the system named is IL29. The assay can be described thus: IL29 cytokine activation in human PBMC (MSD assay). Conditions: Homo sapiens, PBMC, 24 h. As to the method:
as §1, §2, §3, §4

Assay [5] deals with TNF-α. Briefly: TNF-α cytokine activation in human PBMC (MSD assay). Conditions: Homo sapiens, PBMC, 24 h. How it is done:
as §1, §2, §3, §4

Bounds are passed on as bounds.

As for `CCCCc1nc2c(N)nnc(OC(C)C)c2n1Cc1ccccn1` [Compound 75, 2-butyl-7-isopropoxy-1-(pyridin-2-ylmethyl)-1H-imidazo[4,5-d]pyridazin-4-amine], the EC50 in assay [1] was > 20000 nM; in assay [2], 17 nM; in assay [3], 181 nM; in assay [4], 34 nM; in assay [5] it was 5120 nM.

In the case of `CCCCc1nc2c(N)nnc(OC(C)C)c2n1Cc1ccc(OC)cc1` [Compound 1, 2-butyl-7-isopropoxy-1-(4-methoxybenzyl)-1H-imidazo[4,5-d]pyridazin-4-amine], the EC50 in assay [1] was > 20000 nM; in assay [2], 103 nM; in assay [3], 457 nM; in assay [4], 173 nM; in assay [5], 712 nM.

Turning to `CCCCc1nc2c(N)nnc(NCCOC)c2n1Cc1ccc(OC)cc1` [Compound 49, 2-butyl-1-(4-methoxybenzyl)-N7-(2-methoxyethyl)-1H-imidazo[4,5-d]pyridazine-4,7-diamine], the EC50 is > 20000 nM in assay [1]; 75 nM in assay [2]; 1730 nM in assay [3]; 388 nM in assay [4]; 5490 nM in assay [5].

As for `CCCCc1nc2c(N)nnc(NC(C)C)c2n1Cc1ccc(OC)cc1` [Compound 2, 2-butyl-N7-isopropyl-1-(4-methoxybenzyl)-1H-imidazo[4,5-d]pyridazin-4,7-diamine], the EC50 in assay [1] is > 20000 nM; in assay [2], 3 nM; in assay [3] it was 99 nM; in assay [4], 6 nM; in assay [5], 573 nM.

With `CCCCc1nc2c(N)nnc(N3CCCC3)c2n1Cc1ccc(OC)cc1` [Compound 10, 2-butyl-1-(4-methoxybenzyl)-7-(pyrrolidin-1-yl)-1H-imidazo[4,5-d]pyridazin-4-amine], the EC50 in assay [1] is > 20000 nM; in assay [2], 14 nM; in assay [3] it was 177 nM; in assay [4] it was 16 nM; in assay [5], 453 nM.

Take `CCCCc1nc2c(N)nnc(N(C)C)c2n1Cc1ccc(OC)cc1` [Compound 71, 2-butyl-1-(4-methoxybenzyl)-N7,N7-dimethyl-1H-imidazo[4,5-d]pyridazine-4,7-diamine]: the EC50 in assay [1] is > 20000 nM; in assay [2] it was 63 nM; in assay [3] it was 571 nM; in assay [4], 57 nM; in assay [5], 1740 nM.

For the compound `CCCCc1nc2c(N)nnc(N(C)C)c2n1C` [Compound 41, 2-butyl-N7,N7,1-trimethyl-1H-imidazo[4,5-d]pyridazine-4,7-diamine], the EC50 amounted to 7190 nM in assay [1]; 1220 nM in assay [2]; 1280 nM in assay [3]; 3040 nM in assay [4]; 5200 nM in assay [5].

For the compound `CCCCc1nc2c(N)nnc(OC(C)C)c2n1Cc1ccc(CO)cc1` [Compound 35, (4-((4-amino-2-butyl-7-isopropoxy-1H-imidazo[4,5-d]pyridazin-1-yl)methyl)phenyl)methanol], the EC50 in assay [1] was > 20000 nM; in assay [2], 21 nM; in assay [3], 40 nM; in assay [4], 15 nM; in assay [5] it was 343 nM.

As for `CCCCc1nc2c(N)nnc(OCCOC)c2n1Cc1ccc(OC)cc1` [Compound 4, 2-butyl-1-(4-methoxybenzyl)-7-(2-methoxyethoxy)-1H-imidazo[4,5-d]pyridazin-4-amine], the EC50 in assay [1] was > 20000 nM; in assay [2], 81 nM; in assay [3], 1940 nM; in assay [4], 795 nM; in assay [5] it was > 20000 nM.

Regarding `CCCCc1nc2c(N)nnc(OC(C)C)c2n1Cc1cccc(CN)c1` [Compound 33, 1-(3-(aminomethyl)benzyl)-2-butyl-7-isopropoxy-1H-imidazo[4,5-d]pyridazin-4-amine 2,2,2-trifluoroacetate], the EC50 in assay [1] was found to be 336 nM; in assay [2], 3 nM; in assay [3], 52 nM; in assay [4], 2 nM; in assay [5], 1280 nM.
